Literature values in US20120116113A1, “PROCESS FOR MAKING NEO-ENRICHED p-MENTHANE COMPOUNDS” (priority 2010, published 2012).

Conditions: for initial cooling rating: table below paragraph [0137] of U.S. Pat. Appl. 2010/0076080

For `CCOC(=O)CNC(=O)C1CC(C)CCC1C(C)C` (stereo not drawn) [neo-WS-5], the initial cooling rating is given as 61.9.

For `CCOC(=O)CNC(=O)[C@@H]1C[C@H](C)CC[C@H]1C(C)C` [normal WS-5], the initial cooling rating is listed as 53.9.

For `CC(C)[C@@H]1CC[C@@H](C)C[C@@H]1C(=O)Nc1ccc(CC#N)cc1` (single isomer, unassigned) [neo isomer [of G-180]], the cooling effect (according to Yelm et al., U.S. Pat. Appl. 2010/0076080) is given as “potent and long-lasting cooling effect”.
